Measurements from paper PMC5650372 (Oncotarget, 2017).
Where two headings read alike, the source gives them in different places.

Legend:
NHEJ activity = experiment: Reconstituted cell-free NHEJ assay (MCF7 nuclear extract); assay type: biochemical, human
Method: MCF7 human breast cancer cells (5-10 x 10^7 each) were incubated in 5 pellet volumes of cold hypotonic buffer (10 mM Hepes-KOH, pH 7.5, 1.5 mM MgCl2, 5 mM KCl, and 0.5 mM DTT) for 20 minutes and were homogenized in a tight-fitting glass dounce homogenizer for 10-20 strokes. The nuclei were then collected by low-speed centrifugation and nuclear proteins were extracted by high-salt buffer (50 mM Tris-HCl, pH 7.5, 1 M KCl, 2 mM EDTA, 1 mM DTT, and protease inhibitors). The extracted nuclear proteins were dialyzed against 1 L of dialysis buffer (20 mM Tris-HCl, pH 8.0, 20% glycerol, 0.1 M KOAc, 0.5 mM EDTA, and 1 mM DTT) for 1 hour and were used for the in vitro NHEJ assay.
(§1) Nuclear protein (10-20 μg) prepared above was pre-treated with compounds as indicated on ice for 15 minutes. Twenty-five nanograms of EcoRI-digested pBluescript DNA (Stratagene, La Jolla, CA) were then added and the mixture was adjusted to 20 μL final volume in NHEJ buffer (50 mM Hepes-KOH pH 8.0, 40 mM KOAc, 1 mM Mg(OAc)2, 1 mM ATP, 0.1 mg/mL BSA, and 1 mM DTT). After incubation at 25°C for 60 minutes, the reaction was terminated by incubation with 1 μg/mL RNase A for 10 minutes followed by treatment with 2 mg/mL Protease K in 0.5% SDS at 55°C for 30 minutes. The reactions were run onto 0.8% agarose and the gel was stained with Sybr Green (S756, Invitrogen, Carlsbad, CA). For Western blots, an aliquot of the same reaction mixture described above was subjected to SDS-PAGE, transferred to the PVDF membrane, and immunoblotted with indicated antibodies.

pDNA-PK S2056 = experiment: Western blot of cell-free NHEJ reaction (MCF7 nuclear extract); assay type: biochemical, human
Method: as §1

mTOR kinase = mTOR kinase (Homo sapiens, UniProt P42345); experiment: mTOR kinase enzyme assay; assay type: biochemical; settings: average ± SEM
Method: (§2) mTOR, DNA-PK and PI3K-alpha assays were to determine percent inhibition. An IC50 value was then
(§3) performed as reported previously. estimated. […]

DNA-PK = DNA-PK (Homo sapiens, UniProt P78527); experiment: DNA-PK enzyme assay; assay type: biochemical; settings: average ± SEM; CC214-1 n=2
Method: as §2, §3

Rad51-foci in LoVo cells = experiment: Rad51-foci immunofluorescence (homologous recombination); assay type: cell-based, human
pChk2 T68 = experiment: Western blot of cell-free NHEJ reaction (MCF7 nuclear extract); assay type: biochemical, human; settings: MCF7 nuclear extract, 0.05, 0.5 or 5 μM
Method: as §1

pATM S1981 = experiment: as above; assay type: biochemical, human; settings: MCF7 nuclear extract with linear dsDNA
Method: as §1

[1] = tested on: NCI-H1975 and SW1573 cells; experiment: Clonogenic assay alone or with etoposide; assay type: cell-based, human; settings: for combination with 6.8 μM etoposide on colony formation: 10 μM compound, 4 hours; for effect on cell survival, single agent: 4 hours treatment alone
Method: Media were changed every three days. Plates were incubated for a total of about two weeks then fixed and stained using the DIFF QUIK staining kit. Colonies were imaged and counted.

[2] = molecular target: T1, DNA-PKcs, XRCC4 and DNA ligase IV on DNA (Homo sapiens, UniProt P78527); experiment: DNA end binding assay (MCF7 nuclear extract); assay type: biochemical; settings: 5 μM, MCF7 nuclear extract, 10, 30, 60 minutes
T1 construct: endogenous in cells; host or cells: MCF7 nuclear extract
Source text: One kb of DNA fragment, including an EcoRI sequence in the middle, was amplified by PCR using pEGFP as a template and a pair of biotinylated EGFP primers (5′-biotin-[…]-3′ and 5′-biotin-[…]-3′: Valuegene, San Diego, CA). The amplified DNA fragment was cleaved by EcoRI to produce two 0.5 kb biotinylated DNA fragments, and was purified using the QIAquick PCR purification kit (Qiagen). […] An aliquot of the reaction was removed at each time point to separate the supernatant and the beads. The supernatant was subjected to SDS-PAGE and immunoblotting with indicated antibodies. The beads were washed twice with 250 μL of IP buffer (25 mM Hepes-KOH, pH 7.5, 100 mM NaCl, 20% glycerol, 5 mM EDTA, 1 mM DTT, 0.05% Nonidet P-40, 10 mM NaF, and protease inhibitor mixture) and subjected to SDS-PAGE and immunoblotting with indicated antibodies.

ATM = molecular target: T2, ATM (Homo sapiens, UniProt Q13315); design: method as in earlier work; settings: Lit. reported value ref 3; cited from earlier work
T2 construct: made in house; host or cells: HEK293 (293FT cells, Invitrogen R700-07), transient transfection, immunoprecipitation on Protein G Sepharose

[3] = tested on: NHEJ in MDA-MB-231 breast cancer cells; experiment: 384-well image-based cellular NHEJ assay; assay type: cell-based; settings: Homo sapiens; MDA-MB-231, n=3
Source text: (§4) ATM and ATR assay and IC50 determination Cellular NHEJ assay
(§5) HA-ATM and FLAG-ATR (HA-labeled ATM, and The experimental design is illustrated in FLAG-labeled ATR) were each transiently expressed in Supplementary Figure 4. Cal-51 breast cancer cells HEK293 cells (293FT cells, Invitrogen Cat: R700-07) were separately transfected with pEGFP plasmid (6085-using Lipofectamine as transfection reagent. Cells were 1, Clontech, Mountain View, CA) digested with either harvested 6 days post transfection and spun down to EcoRI (to measure NHEJ) or StuI (to measure transfection separate cells from media. Cells were then lysed using a efficiency) using a Amaxa cell line nuclearfector kit V lysis buffer (50 mM Tris buffer, (Tris(hydroxylmethyl)- (CCA-1003, Lonza). Immediately after the transfection, aminomethane, pH 7.5), 100 mM NaCl, 50 mM βGOP, the cells were treated with DMSO or compounds at 10% Glycerol, 0.5% Tween 20, 1 mM EDTA, 25 mM indicated concentrations for 24 hours and GFP-positive sodium fluoride (NaF), 20 nM microcystine, 2 mM cells were counted under a fluorescent microscope. NHEJ phenylmethylsulfonylfluoride (PMSF) and protease activity was calculated by the number of GFP-positive inhibitor cocktail) followed by sonication 3 times and a cells in cells transfected with pEGFP-EcoRI divided by final spin at 20,000 rpm for 30 minutes to generate a clear that in cells transfected with pEGFP-StuI, multiplied by lysate. To perform the immunoprecipitation, enzymes were 100. […]
(§6) or FLAG tags. Beads plus enzymes were then washed 3 developed. Different cell lines were transfected using times with lysis buffer and spun down at 1000 rpm for the procedure described above and subsequently seeded 1 minute. Beads plus enzymes were resuspended in lysis into 384-well plates at optimized density for individual buffer and kept at 4°C until assay. Assays for ATM and cell lines. Cells were then treated with compounds at ATR were conducted in a 33P radioactive assay format. increasing concentrations. GFP+ cells were imaged Assay buffer contained the following reagents: 1 mg/mL and quantitated using the IncuCyte (Essen Bioscience, GST-p53 (glutathione S-transferase–p53 fusion protein) Ann Arbor, MI). NHEJ activity was then normalized substrate (expressed in-house), 20 μg/mL calf thymus to the DMSO control and fitted to the Sigmoidal Dose-DNA activator (Sigma), 100 μg/mL BSA, 200 μM EGTA Response Model (IDBS XLFit Model 205; London, UK)

[4] = tested on: NHEJ in HCT116 colorectal cancer cells; experiment: 384-well image-based cellular NHEJ assay; assay type: cell-based; settings: Homo sapiens, HCT-116; HCT116, n=3
Source text: as §4, §5, §6

NHEJ in Cal-51 cells = experiment: 384-well image-based cellular NHEJ assay; assay type: cell-based; settings: Homo sapiens; Cal-51, n=3
Source text: as §4, §5, §6

[5] = tested on: NHEJ in PC3 prostate cancer cells; experiment: 384-well image-based cellular NHEJ assay; assay type: cell-based; settings: Homo sapiens; PC3, n=3
Source text: as §4, §5, §6

ATR [6] = molecular target: T3, ATR (Homo sapiens, UniProt Q13535); design: method as in earlier work; settings: Lit. reported value ref 3; cited from earlier work
T3 construct: made in house; host or cells: HEK293 (293FT cells, Invitrogen R700-07), transient transfection, immunoprecipitation on Protein G Sepharose

ATR [7] = molecular target: T3, ATR; experiment: ATR 33P radioactive kinase assay (immunoprecipitated FLAG-ATR); assay type: biochemical
Method: deficient cell growth in vitro […]
incorporated in the corresponding no inhibitor control mTOR, DNA-PK and PI3K-alpha assays were to determine percent inhibition. An IC50 value was then performed as reported previously. estimated.
as §4
as §5, with “microscope.” for “microscope. NHEJ phenylmethylsulfonylfluoride (PMSF) and protease activity was calculated by the number of GFP-positive inhibitor cocktail) followed by sonication 3 times and a cells in cells transfected with pEGFP-EcoRI divided by final spin at 20,000 rpm for 30 minutes to generate a clear that in cells transfected with pEGFP-StuI, multiplied by lysate. To perform the immunoprecipitation, enzymes were 100.”

[8] = concentration series (0.05 to 5 μM)

T3 sequence (Q13535 whole entry): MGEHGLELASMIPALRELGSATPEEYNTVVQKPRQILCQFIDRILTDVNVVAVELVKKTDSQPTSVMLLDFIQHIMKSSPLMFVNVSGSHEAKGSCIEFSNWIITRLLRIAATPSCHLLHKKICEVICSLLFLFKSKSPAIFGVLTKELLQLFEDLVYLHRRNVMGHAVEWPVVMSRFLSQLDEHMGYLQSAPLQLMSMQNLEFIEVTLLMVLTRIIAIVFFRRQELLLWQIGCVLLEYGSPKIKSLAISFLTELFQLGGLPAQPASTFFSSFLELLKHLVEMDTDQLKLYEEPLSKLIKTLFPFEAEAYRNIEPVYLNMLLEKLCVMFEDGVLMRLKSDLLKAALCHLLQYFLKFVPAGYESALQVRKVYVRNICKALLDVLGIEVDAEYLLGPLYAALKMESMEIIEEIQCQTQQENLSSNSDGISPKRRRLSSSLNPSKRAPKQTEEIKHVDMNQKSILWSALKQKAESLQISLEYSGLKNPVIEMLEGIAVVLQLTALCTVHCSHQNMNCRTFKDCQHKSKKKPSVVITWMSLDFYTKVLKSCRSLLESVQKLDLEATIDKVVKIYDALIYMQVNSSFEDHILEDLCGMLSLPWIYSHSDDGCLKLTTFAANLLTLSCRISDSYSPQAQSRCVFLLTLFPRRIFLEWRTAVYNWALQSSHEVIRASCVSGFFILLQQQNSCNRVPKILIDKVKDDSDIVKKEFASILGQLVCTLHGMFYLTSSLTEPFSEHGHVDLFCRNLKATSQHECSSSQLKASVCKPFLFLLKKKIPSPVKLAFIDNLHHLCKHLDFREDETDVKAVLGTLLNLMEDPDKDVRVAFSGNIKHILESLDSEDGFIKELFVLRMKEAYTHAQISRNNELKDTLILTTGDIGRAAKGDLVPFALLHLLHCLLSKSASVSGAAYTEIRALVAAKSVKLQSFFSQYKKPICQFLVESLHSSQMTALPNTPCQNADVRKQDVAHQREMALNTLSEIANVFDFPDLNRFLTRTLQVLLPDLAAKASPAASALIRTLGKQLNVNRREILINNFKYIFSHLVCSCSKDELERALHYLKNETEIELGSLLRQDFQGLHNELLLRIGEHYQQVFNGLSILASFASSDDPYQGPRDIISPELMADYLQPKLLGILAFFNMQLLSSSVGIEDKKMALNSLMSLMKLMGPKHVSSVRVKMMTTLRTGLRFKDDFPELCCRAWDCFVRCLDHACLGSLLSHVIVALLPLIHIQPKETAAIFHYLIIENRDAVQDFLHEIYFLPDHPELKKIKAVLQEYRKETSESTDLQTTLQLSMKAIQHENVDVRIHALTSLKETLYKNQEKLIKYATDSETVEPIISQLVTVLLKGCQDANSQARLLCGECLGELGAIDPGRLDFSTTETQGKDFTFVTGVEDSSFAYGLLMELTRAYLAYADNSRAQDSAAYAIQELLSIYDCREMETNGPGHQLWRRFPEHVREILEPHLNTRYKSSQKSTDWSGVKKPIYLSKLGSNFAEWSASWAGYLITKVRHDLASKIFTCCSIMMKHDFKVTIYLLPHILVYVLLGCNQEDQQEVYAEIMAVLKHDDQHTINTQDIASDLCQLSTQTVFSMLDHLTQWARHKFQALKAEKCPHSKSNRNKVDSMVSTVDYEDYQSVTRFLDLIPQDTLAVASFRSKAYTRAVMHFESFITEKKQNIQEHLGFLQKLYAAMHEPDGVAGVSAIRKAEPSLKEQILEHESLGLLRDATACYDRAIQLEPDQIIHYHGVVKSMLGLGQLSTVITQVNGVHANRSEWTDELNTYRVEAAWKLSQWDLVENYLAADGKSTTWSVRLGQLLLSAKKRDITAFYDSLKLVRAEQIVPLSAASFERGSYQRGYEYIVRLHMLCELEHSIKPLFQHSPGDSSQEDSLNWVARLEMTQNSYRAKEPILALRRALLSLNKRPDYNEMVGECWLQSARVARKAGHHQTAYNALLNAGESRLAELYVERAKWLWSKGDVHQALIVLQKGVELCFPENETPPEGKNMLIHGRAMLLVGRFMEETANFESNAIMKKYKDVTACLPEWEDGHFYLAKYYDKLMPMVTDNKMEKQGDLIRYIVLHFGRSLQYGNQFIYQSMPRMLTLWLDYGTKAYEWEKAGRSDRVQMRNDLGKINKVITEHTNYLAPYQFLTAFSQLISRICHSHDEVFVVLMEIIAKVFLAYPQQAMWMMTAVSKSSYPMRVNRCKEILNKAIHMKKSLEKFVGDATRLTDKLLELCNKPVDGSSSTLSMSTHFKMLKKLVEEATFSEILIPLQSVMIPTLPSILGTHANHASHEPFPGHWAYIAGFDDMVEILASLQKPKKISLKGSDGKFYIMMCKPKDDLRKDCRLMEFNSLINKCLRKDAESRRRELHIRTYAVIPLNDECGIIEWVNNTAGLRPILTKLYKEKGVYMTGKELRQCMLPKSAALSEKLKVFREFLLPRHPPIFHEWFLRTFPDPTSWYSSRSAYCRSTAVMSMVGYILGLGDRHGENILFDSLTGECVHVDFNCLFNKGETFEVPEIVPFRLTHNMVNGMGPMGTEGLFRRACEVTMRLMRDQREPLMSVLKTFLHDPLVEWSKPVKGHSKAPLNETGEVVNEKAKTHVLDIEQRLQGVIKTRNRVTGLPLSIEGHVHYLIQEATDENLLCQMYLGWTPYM

| Compound | inhibition of pDNA-PK S2056, cell-free (pDNA-PK S2056) | IC50 (mTOR kinase) | IC50 (DNA-PK) | inhibition of NHEJ activity, cell-free (NHEJ activity; [8]) | inhibition of pChk2 T68, cell-free (pChk2 T68) | inhibition of pATM S1981, cell-free (pATM S1981) | combination with 6.8 μM etoposide on colony formation [1] | effect on cell survival, single agent [1] | IC50 [3] | IC50 [4] | IC50 (NHEJ in Cal-51 cells) | IC50 [5] | also measured |
| --- | --- | --- | --- | --- | --- | --- | --- | --- | --- | --- | --- | --- | --- |
| O=c1[nH]c2ncc(-c3ccc(-c4nc[nH]n4)cc3)nc2n1CCC1CCOCC1 [CC214-1, 6-(4-(1H-1,2,4-triazol-3-yl)phenyl)-1-(2-(tetrahydro-2H-pyran-4-yl)ethyl)-1,3-dihydro-2H-imidazo[4,5-b]pyrazin-2-one] | to a smaller extent | 0.002 ± 0.0002 µM | 0.141 µM |  |  |  |  |  |  |  |  |  | inhibition of NHEJ activity, cell-free (NHEJ activity; 5 μM): Minimal inhibition |
| COc1cccc2c1C(=O)c1c(O)c3c(c(O)c1C2=O)C[C@@](O)(C(=O)CO)C[C@@H]3O[C@H]1C[C@H](N)[C@H](O)[C@H](C)O1 [doxorubicin] |  |  |  |  |  |  |  |  |  |  |  |  | Rad51-foci positive nuclei (HR efficiency) (Rad51-foci in LoVo cells; 0.1 μM doxorubicin only): 24% |
| O=c1cc(-c2cccc3c2Sc2ccccc2S3)oc(N2CCOCC2)c1 [KU55933, 2-(4-morpholinyl)-6-(1-thianthrenyl)-4H-pyran-4-one] | not DNA-PK phosphorylation |  |  | did not inhibit | concentration-dependent inhibition | efficiently inhibited |  |  |  |  |  |  |  |
| O=c1cc(N2CCOCC2)oc2c(-c3cccc4c3sc3ccccc34)cccc12 [NU7441, 8-(4-dibenzothienyl)-2-(4-morpholinyl)-4H-1-benzopyran-4-one] | also inhibited | 1.64 ± 0.2 µM |  | Inhibition of NHEJ was also observed | also inhibited | reduction | synergistic effect | minimal effect on cell survival | 630 ± 80 nM | 6220 ± 6760 nM | 2560 ± 840 nM | 1030 ± 170 nM | DNA-PKcs, XRCC4 and DNA ligase IV bound to DNA over time [2]: retained from 10 minutes through the end of the reaction at 60 minutes; IC50 (ATM): > 100 µM; Rad51-foci positive nuclei (HR efficiency) (Rad51-foci in LoVo cells; 5 μM compound with 0.1 μM doxorubicin): 10.3%; IC50 (ATR [6]): > 100 µM |
| CC(C)(O)c1ccc(-c2cnc3c(n2)N(CC2CCOCC2)CC(=O)N3)cn1 [CC214-2, 6-(6-(2-hydroxypropan-2-yl)pyridin-3-yl)-4-((tetrahydro-2H-pyran-4-yl)methyl)-3,4-dihydropyrazino[2,3-b]pyrazin-2(1H)-one] | did not inhibit |  | > 10 µM | not changed |  |  | synergy was not observed | minimal effect on cell survival | > 10000 nM | > 10000 nM | > 10000 nM | > 10000 nM | IC50 (ATR [7]): > 3000 nM |
| COc1cc([C@@H]2c3cc4c(cc3[C@@H](O[C@@H]3O[C@@H]5CO[C@@H](C)O[C@H]5[C@H](O)[C@H]3O)[C@H]3COC(=O)[C@H]23)OCO4)cc(OC)c1O [etoposide] |  |  |  |  |  |  |  | substantially impairs survival |  |  |  |  |  |
